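Method: 48-hour compound exposure of cells in 96-well plates, five concentrations, linear interpolation of endpoints. The concentration for 50% growth inhibition is given as GI50. TGI is the concentration that stops growth completely.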
Key:
Experiment in all cases: growth of human tumour cells (NCI), 48 h
[1] = test system: OVCAR-8 ovarian
[2] = test system: COLO 205 colon
[3] = test system: HT29 colon
[4] = test system: SF-295 CNS
[5] = test system: RPMI-8226 leukemia
[6] = test system: ACHN renal
[7] = test system: MDA-MB-435
[8] = test system: SK-MEL-5 melanoma
[9] = test system: LOX IMVI melanoma
[10] = test system: DU-145 prostate
[11] = test system: MDA-N
[12] = test system: NCI-H23 lung
[13] = test system: UO-31 renal
[14] = test system: NCI-H522 lung
[15] = test system: SF-539 CNS
[16] = test system: SF-268 CNS
[17] = test system: KM12 colon
[18] = test system: OVCAR-4 ovarian
[19] = test system: MDA-MB-231 breast
[20] = test system: UACC-257 melanoma
[21] = test system: A498 renal
[22] = test system: CCRF-CEM leukemia
[23] = test system: UACC-62 melanoma
[24] = test system: SN12C renal
[25] = test system: CAKI-1 renal
[26] = test system: OVCAR-3 ovarian
[27] = test system: SK-MEL-28 melanoma
[28] = test system: HCT-116 colon
[29] = test system: RXF 393 renal
[30] = test system: MALME-3M melanoma
[31] = test system: SNB-19 CNS
[32] = test system: HS 578T breast
[33] = test system: SK-MEL-2 melanoma
[34] = test system: SK-OV-3 ovarian
[35] = test system: MCF7 breast
[36] = test system: NCI/ADR-RES ovarian
[37] = test system: SNB-75 CNS
[38] = test system: NCI-H226 lung
[39] = test system: T-47D breast
[40] = test system: IGROV1 ovarian
[41] = test system: SW-620 colon
[42] = test system: HCT-15 colon
[43] = test system: MOLT-4 leukemia
[44] = test system: M14 melanoma
[45] = test system: K-562 leukemia
[46] = test system: HOP-62 NSCLC
[47] = test system: HOP-92 NSCLC
[48] = test system: PC-3 prostate
[49] = test system: HCC-2998 colon
[50] = test system: EKVX NSCLC
[51] = test system: A549 NSCLC
[52] = test system: NCI-H460 lung
[53] = test system: OVCAR-5 ovarian
[54] = test system: 786-0 renal
[55] = test system: TK-10 renal
[56] = test system: U251 CNS
[57] = test system: HL-60(TB) leukemia
[58] = test system: SR leukemia
[59] = test system: BT-549 breast

COc1cc(CNc2nc3ccccc3n2Cc2ccccc2)cc(CN2CCOCC2)c1O
TGI [1]: > 100 µM
TGI [2]: 40.1 µM
TGI [3]: 70.4 µM
TGI [4]: 41.6 µM
TGI [5]: > 100 µM
TGI [6]: > 100 µM
TGI [7]: 44.7 µM
TGI [8]: 34.2 µM
TGI [9]: 30.7 µM
TGI [10]: > 100 µM
TGI [11]: 68.2 µM
TGI [12]: > 100 µM
TGI [13]: 52.5 µM
TGI [14]: 78.2 µM
TGI [15]: 34.5 µM
TGI [16]: > 100 µM
TGI [17]: > 100 µM
TGI [18]: > 100 µM
TGI [19]: 38.1 µM
TGI [20]: 39.9 µM
TGI [21]: 39.2 µM
TGI [22]: > 100 µM
TGI [23]: 45.2 µM
TGI [24]: > 100 µM
TGI [25]: > 100 µM
TGI [26]: 56.6 µM
TGI [27]: 34.6 µM
TGI [28]: 41.7 µM
TGI [29]: 47.7 µM
TGI [30]: 34 µM
TGI [31]: > 100 µM
TGI [32]: 80.9 µM
TGI [33]: 47.5 µM
TGI [34]: > 100 µM
TGI [35]: 79.5 µM
TGI [36]: 65.6 µM
TGI [37]: 83.9 µM
TGI [38]: 82.8 µM
TGI [39]: > 100 µM
TGI [40]: > 100 µM
TGI [41]: > 100 µM
TGI [42]: 70.6 µM
TGI [43]: > 100 µM
TGI [44]: 40.4 µM
TGI [45]: 53.1 µM
TGI [46]: 65.2 µM
TGI [47]: 56.3 µM
TGI [48]: 99.5 µM
TGI [49]: 85.1 µM
TGI [50]: > 100 µM
TGI [51]: > 100 µM
TGI [52]: > 100 µM
TGI [53]: 87.8 µM
TGI [54]: 31.6 µM
TGI [55]: 65.9 µM
TGI [56]: 93.1 µM

O=C(C[C@@]1(O)C(=O)Nc2c(Cl)ccc(Cl)c21)c1ccc(C2CC2)cc1
GI50 [1]: 0.577 µM
TGI [1]: 19.3 µM
GI50 [2]: 0.298 µM
TGI [2]: 2.13 µM
GI50 [3]: 0.222 µM
TGI [3]: 13.7 µM
GI50 [4]: 0.344 µM
TGI [4]: 13.3 µM
GI50 [5]: 0.433 µM
TGI [5]: 21.4 µM
GI50 [6]: 0.726 µM
TGI [6]: 31.3 µM
GI50 [7]: 0.033 µM
TGI [7]: 0.232 µM
GI50 [8]: 0.355 µM
TGI [8]: 11.6 µM
GI50 [9]: 0.541 µM
TGI [9]: 13.9 µM
GI50 [10]: 0.492 µM
TGI [10]: 17.1 µM
GI50 [12]: 0.634 µM
TGI [12]: 19.3 µM
GI50 [13]: 0.585 µM
TGI [13]: 18.5 µM
GI50 [14]: 0.0682 µM
TGI [14]: 14.1 µM
GI50 [15]: 0.286 µM
TGI [15]: 3.64 µM
GI50 [16]: 1.3 µM
TGI [16]: 18.5 µM
GI50 [17]: 0.318 µM
TGI [17]: 14.2 µM
GI50 [18]: 6.01 µM
TGI [18]: 39.8 µM
GI50 [19]: 0.798 µM
TGI [19]: 15.2 µM
GI50 [20]: 12.4 µM
TGI [20]: 41.1 µM
GI50 [21]: 0.213 µM
TGI [21]: 0.75 µM
GI50 [22]: 0.341 µM
TGI [22]: > 100 µM
GI50 [23]: 0.378 µM
TGI [23]: 15.6 µM
GI50 [24]: 0.88 µM
TGI [24]: 17.7 µM
GI50 [25]: 0.214 µM
TGI [25]: 17.2 µM
GI50 [26]: 0.264 µM
TGI [26]: 3.71 µM
GI50 [27]: 3.5 µM
TGI [27]: 23.5 µM
GI50 [28]: 0.437 µM
TGI [28]: 11.9 µM
GI50 [29]: 0.257 µM
TGI [29]: 4.03 µM
GI50 [57]: 0.263 µM
TGI [57]: 1.07 µM
GI50 [58]: 0.0527 µM
TGI [58]: 15.4 µM
GI50 [30]: 0.542 µM
TGI [30]: 23.9 µM
GI50 [31]: 0.69 µM
TGI [31]: 18.1 µM
GI50 [32]: 0.305 µM
TGI [32]: 10 µM
GI50 [33]: 0.515 µM
TGI [33]: 18 µM
GI50 [34]: 0.613 µM
TGI [34]: 39.1 µM
GI50 [35]: 0.171 µM
TGI [35]: 18.2 µM
GI50 [36]: 0.212 µM
TGI [36]: 13.9 µM
GI50 [37]: 0.143 µM
TGI [37]: 0.588 µM
GI50 [38]: 1.54 µM
TGI [38]: 19.7 µM
GI50 [39]: 0.454 µM
TGI [39]: 32.5 µM
GI50 [40]: 0.446 µM
TGI [40]: 13.6 µM
GI50 [41]: 0.19 µM
TGI [41]: 16.5 µM
GI50 [42]: 0.102 µM
TGI [42]: 13.6 µM
GI50 [43]: 0.505 µM
TGI [43]: 14.6 µM
GI50 [44]: 0.184 µM
TGI [44]: 13.8 µM
GI50 [59]: 0.445 µM
TGI [59]: 11.7 µM
GI50 [45]: 0.05 µM
TGI [45]: > 51.7 µM
GI50 [46]: 0.516 µM
TGI [46]: 19.2 µM
GI50 [47]: 1.46 µM
TGI [47]: 19.7 µM
GI50 [48]: 0.434 µM
TGI [48]: 20 µM
GI50 [49]: 0.888 µM
TGI [49]: 14.8 µM
GI50 [50]: 0.631 µM
TGI [50]: 30.7 µM
GI50 [51]: 0.729 µM
TGI [51]: 24 µM
GI50 [52]: 0.359 µM
TGI [52]: 11.4 µM
GI50 [53]: 1.17 µM
TGI [53]: 17.5 µM
GI50 [54]: 1.39 µM
TGI [54]: 20 µM
GI50 [55]: 15.1 µM
TGI [55]: 46.6 µM
GI50 [56]: 0.436 µM
TGI [56]: 16.2 µM

— PubChem BioAssay (NCI)
